# Patent US10392630B2, “Plants having increased tolerance to herbicides” (BASF AGRO B.V., priority 2013, dated 2019)
# Values joined by “and” are separate entries in the source; they are usually repeats but may differ in a detail not shown here. Equal values may be shown once.
# Experiments:
# [1] = tested on: Alopecurus wildtype PPO (ALOMY), PPO herbicide sensitive PPO2, SEQ ID NO 2; test: PPO enzyme assay, dose-response (fluorescence), wildtype Alopecurus PPO2; assay type: biochemical, Alopecurus myosuroides
# [2] = molecular target: Amaranthus wildtype PPO (AMARE), PPO herbicide sensitive PPO2 (Amaranthus tuberculatus, UniProt Q0NZW9); test: PPO enzyme assay, dose-response (fluorescence), wildtype Amaranthus PPO2; assay type: biochemical; settings: IC50 (M), Table 3a
# Sequence of Amaranthus wildtype PPO (AMARE), PPO herbicide sensitive PPO2 (Q0NZW9 entry or part of it): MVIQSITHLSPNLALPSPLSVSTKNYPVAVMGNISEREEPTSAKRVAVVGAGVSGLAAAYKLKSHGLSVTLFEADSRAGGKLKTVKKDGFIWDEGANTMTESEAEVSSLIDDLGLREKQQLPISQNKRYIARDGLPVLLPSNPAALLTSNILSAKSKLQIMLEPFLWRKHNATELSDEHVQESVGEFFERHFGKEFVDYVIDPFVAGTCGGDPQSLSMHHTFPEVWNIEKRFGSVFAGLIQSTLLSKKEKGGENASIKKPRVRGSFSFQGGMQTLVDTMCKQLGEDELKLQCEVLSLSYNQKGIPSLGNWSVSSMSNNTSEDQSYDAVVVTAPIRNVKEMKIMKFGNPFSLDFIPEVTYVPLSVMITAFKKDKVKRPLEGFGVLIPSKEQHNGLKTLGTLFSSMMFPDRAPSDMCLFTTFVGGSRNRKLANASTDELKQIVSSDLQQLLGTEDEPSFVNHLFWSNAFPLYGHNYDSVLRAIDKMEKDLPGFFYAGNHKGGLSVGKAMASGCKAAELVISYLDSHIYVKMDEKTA
# [3] = tested on: transgenic Arabidopsis thaliana plants; test: Growth inhibition of transgenic Arabidopsis in 48-well plates, tolerance factor (Table 5, FIG. 2); assay type: in vivo; settings: growth inhibition seven to ten days after seeding
# [4] = tested on: transgenic T0 corn events; test: Herbicide injury of transgenic T0 corn events, greenhouse spray (Table 6a); assay type: in vivo, Zea mays; settings: 7 days after treatment
# [5] = tested on: transgenic soybean cv Jake cuttings; test: Herbicide injury of transgenic soybean cuttings from T0 plants (Table 7, FIG. 4); assay type: in vivo, Glyceine max; settings: V2 spray, 1 week after treatment
smiles,measurement,setting,value
C#CCN1C(=O)C(F)(F)Oc2cc(F)c(-n3c(=O)n(C)c(=S)n(C)c3=O)cc21 [BAS 850H],IC50,"[1]; Table 3a, PPO herbicide sensitive PPO2, SEQ ID NO 2, ALOMY",0.0364 nM
same,IC50,"[1]; Table 3b, SEQ ID NO 2, WT",0.0364 nM
same,IC50,[2]; PPO herbicide sensitive PPO2 AC,5.96e-11 M
same,IC50,[2]; PPO herbicide sensitive PPO2 WC,5.17e-10 M
same,"TF (Tolerance Factor), relative tolerance rate (non-transgenic = 1.0)",[3]; transgenic Arabidopsis Am_PPO2_F438I,>50
same,"TF (Tolerance Factor), relative tolerance rate (non-transgenic = 1.0)",[3]; transgenic Arabidopsis Am_PPO2_R137A,>50
same,"TF (Tolerance Factor), relative tolerance rate (non-transgenic = 1.0)",[3]; transgenic Arabidopsis Am_PPO2_R137A_F438I,>50
same,"TF (Tolerance Factor), relative tolerance rate (non-transgenic = 1.0)",[3]; transgenic Arabidopsis Am_PPO2_R137A_F438L,>50
same,"TF (Tolerance Factor), relative tolerance rate (non-transgenic = 1.0)",[3]; transgenic Arabidopsis Am_PPO2_R137A_F438M,>50
same,"TF (Tolerance Factor), relative tolerance rate (non-transgenic = 1.0)",[3]; transgenic Arabidopsis Am_PPO2_R137A_F438V,>50
same,"TF (Tolerance Factor), relative tolerance rate (non-transgenic = 1.0)",[3]; transgenic Arabidopsis Am_PPO2_R137I,>50
same,"TF (Tolerance Factor), relative tolerance rate (non-transgenic = 1.0)",[3]; transgenic Arabidopsis Am_PPO2_R137L_F438I,>50
same,"TF (Tolerance Factor), relative tolerance rate (non-transgenic = 1.0)",[3]; transgenic Arabidopsis Am_PPO2_R137L_F438L,>50
same,"TF (Tolerance Factor), relative tolerance rate (non-transgenic = 1.0)",[3]; transgenic Arabidopsis Am_PPO2_R137L_F438M,>50
same,"TF (Tolerance Factor), relative tolerance rate (non-transgenic = 1.0)",[3]; transgenic Arabidopsis Am_PPO2_R137M_F438I,>50
same,"TF (Tolerance Factor), relative tolerance rate (non-transgenic = 1.0)",[3]; transgenic Arabidopsis Am_PPO2_R137M_F438L,>50
same,"TF (Tolerance Factor), relative tolerance rate (non-transgenic = 1.0)",[3]; transgenic Arabidopsis Am_PPO2_R137M_F438M,>50
same,"TF (Tolerance Factor), relative tolerance rate (non-transgenic = 1.0)",[3]; transgenic Arabidopsis Am_PPO2_R137M_F438V,>50
same,"Herbicide injury, 0 to 9 rating scale","[4]; T0 corn events AlomyPPO1_R138A, 50 g ai/ha + 1% (v/v) MSO at V2 stage",6
same,"Herbicide injury, 0 to 9 rating scale","[4]; T0 corn events AlomyPPO1_R138A_Y420M, 50 g ai/ha + 1% (v/v) MSO at V2 stage",5 and 6
same,"Herbicide injury, 0 to 9 rating scale","[4]; T0 corn events AlomyPPO1_R138A_Y420V, 50 g ai/ha + 1% (v/v) MSO at V2 stage",6 and 5
same,"Herbicide injury, 0 to 9 rating scale","[4]; T0 corn events AlomyPPO1_R138A_Y420V, 100 g ai/ha + 1% (v/v) MSO at V2 stage",5
same,"Herbicide injury, 0 to 9 rating scale","[4]; T0 corn events AlomyPPO1_Y420M, 50 g ai/ha + 1% (v/v) MSO at V2 stage",5 and 6
same,"Herbicide injury, 0 to 9 rating scale","[4]; T0 corn events AlomyPPO1_Y420M, 100 g ai/ha + 1% (v/v) MSO at V2 stage",6
same,"Herbicide injury, 0 to 9 rating scale","[4]; T0 corn events AlomyPPO1_Y420V, 50 g ai/ha + 1% (v/v) MSO at V2 stage",5 and 4 and 6
same,"Herbicide injury, 0 to 9 rating scale","[4]; T0 corn events AlomyPPO1_Y420V, 100 g ai/ha + 1% (v/v) MSO at V2 stage",6
same,"Herbicide injury, 0 to 9 rating scale","[4]; T0 corn events AlomyPPO2, 50 g ai/ha + 1% (v/v) MSO at V2 stage",6
same,"Herbicide injury, 0 to 9 rating scale","[4]; T0 corn events AlomyPPO2, 75 g ai/ha + 1% (v/v) MSO at V2 stage",6
same,"Herbicide injury, 0 to 9 rating scale","[4]; T0 corn events AlomyPPO2_R137A, 50 g ai/ha + 1% (v/v) MSO at V2 stage",5 and 4 and 6
same,"Herbicide injury, 0 to 9 rating scale","[4]; T0 corn events AlomyPPO2_R137A, 75 g ai/ha + 1% (v/v) MSO at V2 stage",5
same,"Herbicide injury, 0 to 9 rating scale","[4]; T0 corn events AlomyPPO2_R137A_F438I, 50 g ai/ha + 1% (v/v) MSO at V2 stage",4
same,"Herbicide injury, 0 to 9 rating scale","[4]; T0 corn events AlomyPPO2_R137A_F438I, 100 g ai/ha + 1% (v/v) MSO at V2 stage",4 and 5
same,"Herbicide injury, 0 to 9 rating scale","[4]; T0 corn events AlomyPPO2_R137A_F438M, 100 g ai/ha + 1% (v/v) MSO at V2 stage",5
same,"Herbicide injury, 0 to 9 rating scale","[4]; T0 corn events AlomyPPO2_R137A_F438V, 100 g ai/ha + 1% (v/v) MSO at V2 stage",6
same,"Herbicide injury, 0 to 9 rating scale","[4]; T0 corn events AlomyPPO2_R137I, 100 g ai/ha + 1% (v/v) MSO at V2 stage",4
same,"Herbicide injury, 0 to 9 rating scale","[4]; T0 corn events AlomyPPO2_R137M_F438I, 75 g ai/ha + 1% (v/v) MSO at V2 stage",3 and 4
same,"Herbicide injury, 0 to 9 rating scale","[4]; T0 corn events tp-SorbiPPO2::AlomyPPO2, 50 g ai/ha + 1% (v/v) MSO at V2 stage",5 and 6
same,"Herbicide injury, 0 to 9 rating scale","[4]; T0 corn events tp-SorbiPPO2::AlomyPPO2, 100 g ai/ha + 1% (v/v) MSO at V2 stage",5
same,"Herbicide injury, 0 to 9 rating scale","[4]; T0 corn events tp-SorbiPPO2::AlomyPPO2_F431V, 50 g ai/ha + 1% (v/v) MSO at V2 stage",4 and 5
same,"Herbicide injury, 0 to 9 rating scale","[4]; T0 corn events tp-SorbiPPO2::AlomyPPO2_F431V, 100 g ai/ha + 1% (v/v) MSO at V2 stage",5 and 6
same,"Herbicide injury, 0 to 9 rating scale","[4]; T0 corn events tp-SorbiPPO2::AlomyPPO2_R130A, 50 g ai/ha + 1% (v/v) MSO at V2 stage",4 and 5
same,"Herbicide injury, 0 to 9 rating scale","[4]; T0 corn events tp-SorbiPPO2::AlomyPPO2_R130A_F431V, 100 g ai/ha + 1% (v/v) MSO at V2 stage",7 and 6
same,"Herbicide injury, 0 to 9 rating scale","[4]; T0 corn events tp-SorbiPPO2::c-AlomyPPO2_R130A_F431M, 50 g ai/ha + 1% (v/v) MSO at V2 stage",4 and 5
same,"Herbicide injury, 0 to 9 rating scale","[4]; T0 corn events tp-SorbiPPO2::c-AlomyPPO2_R130L_F431V, 50 g ai/ha + 1% (v/v) MSO at V2 stage",4 and 3 and 5
same,"Herbicide injury, 0 to 9 rating scale","[4]; T0 corn events tp-ZeamaPPO2::AlomyPPO2, 50 g ai/ha + 1% (v/v) MSO at V2 stage",5 and 6
same,"Herbicide injury, 0 to 9 rating scale","[4]; T0 corn events tp-ZeamaPPO2::AlomyPPO2_F431V, 50 g ai/ha + 1% (v/v) MSO at V2 stage",3 and 4 and 5
same,"Herbicide injury, 0 to 9 rating scale","[4]; T0 corn events tp-ZeamaPPO2::AlomyPPO2_F431V, 100 g ai/ha + 1% (v/v) MSO at V2 stage",4
same,"Herbicide injury, 0 to 9 rating scale","[4]; T0 corn events tp-ZeamaPPO2::AlomyPPO2_R130A, 50 g ai/ha + 1% (v/v) MSO at V2 stage",7 and 4 and 5 and 6
same,"Herbicide injury, 0 to 9 rating scale","[4]; T0 corn events tp-ZeamaPPO2::AlomyPPO2_R130A, 100 g ai/ha + 1% (v/v) MSO at V2 stage",5
same,"Herbicide injury, 0 to 9 rating scale","[4]; T0 corn events tp-ZeamaPPO2::AlomyPPO2_R130A_F431V, 50 g ai/ha + 1% (v/v) MSO at V2 stage",4 and 5
same,"Herbicide injury, 0 to 9 rating scale","[4]; T0 corn events tp-ZeamaPPO2::c-AlomyPPO2_R130L_F431V, 50 g ai/ha + 1% (v/v) MSO at V2 stage",3 and 4 and 5 and 6
same,"Herbicide injury, 0 to 9 rating scale","[4]; T0 corn events tp-ZeamaPPO2::c-AlomyPPO2_R130M_F431V, 50 g ai/ha + 1% (v/v) MSO at V2 stage",3 and 4 and 2
same,"Herbicide injury, 0 to 9 rating scale","[4]; untransformed wild type corn, 50 g ai/ha + 1% (v/v) MSO at V2 stage",6
same,"Herbicide injury, 0 to 9 rating scale","[4]; untransformed wild type corn, 75 g ai/ha + 1% (v/v) MSO at V2 stage",6
same,"Herbicide injury, 0 to 9 rating scale","[4]; untransformed wild type corn, 100 g ai/ha + 1% (v/v) MSO at V2 stage",6
same,Herbicide injury,"[5]; AlomyPPO1_R138A T0 cuttings, BAS 850H 25 g ai/ha",5 and 9
same,Herbicide injury,"[5]; AlomyPPO1_R138A T0 cuttings, BAS 850H 50 g ai/ha",8 and 9
same,Herbicide injury,"[5]; AlomyPPO1_R138A_Y420M T0 cuttings, BAS 850H 25 g ai/ha",7
same,Herbicide injury,"[5]; AlomyPPO1_R138A_Y420M T0 cuttings, BAS 850H 50 g ai/ha",9
same,Herbicide injury,"[5]; AlomyPPO1_R138L T0 cuttings, BAS 850H 25 g ai/ha",8 and 9 and 6
same,Herbicide injury,"[5]; AlomyPPO1_R138L T0 cuttings, BAS 850H 50 g ai/ha",8 and 7 and 9
same,Herbicide injury,"[5]; AlomyPPO1_Y420M T0 cuttings, BAS 850H 25 g ai/ha",6 and 5 and 9
same,Herbicide injury,"[5]; AlomyPPO1_Y420M T0 cuttings, BAS 850H 50 g ai/ha",8 and 6 and 9
same,Herbicide injury,"[5]; AlomyPPO1_Y420V T0 cuttings, BAS 850H 50 g ai/ha",9 and 7 and 8 and 5
same,Herbicide injury,"[5]; AlomyPPO2 T0 cuttings, BAS 850H 25 g ai/ha",7 and 8 and 9
same,Herbicide injury,"[5]; AlomyPPO2 T0 cuttings, BAS 850H 50 g ai/ha",9 and 8 and 7
same,Herbicide injury,"[5]; AlomyPPO2_R137A T0 cuttings, BAS 850H 25 g ai/ha",7
same,Herbicide injury,"[5]; AlomyPPO2_R137A T0 cuttings, BAS 850H 50 g ai/ha",7
same,Herbicide injury,"[5]; AlomyPPO2_R137A_F438I T0 cuttings, BAS 850H 25 g ai/ha",4 and 5 and 7 and 8 and 6
same,Herbicide injury,"[5]; AlomyPPO2_R137A_F438I T0 cuttings, BAS 850H 50 g ai/ha",5 and 6 and 7 and 8
same,Herbicide injury,"[5]; AlomyPPO2_R137A_F438I T0 cuttings, BAS 850H 75 g ai/ha",5 and 8 and 7 and 9 and 6
same,Herbicide injury,"[5]; AlomyPPO2_R137A_F438L T0 cuttings, BAS 850H 25 g ai/ha",6 and 9 and 8
same,Herbicide injury,"[5]; AlomyPPO2_R137A_F438L T0 cuttings, BAS 850H 50 g ai/ha",7 and 9 and 5
same,Herbicide injury,"[5]; AlomyPPO2_R137A_F438L T0 cuttings, BAS 850H 75 g ai/ha",7 and 9 and 5
same,Herbicide injury,"[5]; AlomyPPO2_R137A_F438V T0 cuttings, BAS 850H 50 g ai/ha",4 and 5 and 6
same,Herbicide injury,"[5]; AlomyPPO2_R137A_F438V T0 cuttings, BAS 850H 75 g ai/ha",5 and 7 and 6
same,Herbicide injury,"[5]; AlomyPPO2_R137I T0 cuttings, BAS 850H 50 g ai/ha",6 and 5 and 7 and 9
same,Herbicide injury,"[5]; AlomyPPO2_R137L_F438I T0 cuttings, BAS 850H 25 g ai/ha",8 and 9
same,Herbicide injury,"[5]; AlomyPPO2_R137L_F438I T0 cuttings, BAS 850H 50 g ai/ha",9 and 8
same,Herbicide injury,"[5]; AlomyPPO2_R137L_F438I T0 cuttings, BAS 850H 75 g ai/ha",9 and 8
same,Herbicide injury,"[5]; AlomyPPO2_R137M_F438L T0 cuttings, BAS 850H 50 g ai/ha",7 and 4 and 5
same,Herbicide injury,"[5]; AlomyPPO2_R137M_F438L T0 cuttings, BAS 850H 75 g ai/ha",7 and 6 and 5
same,Herbicide injury,"[5]; Wild type cuttings, BAS 850H 25 g ai/ha",8
same,Herbicide injury,"[5]; Wild type cuttings, BAS 850H 50 g ai/ha",9
same,Herbicide injury,"[5]; Wild type cuttings, BAS 850H 75 g ai/ha",9
